Values of other authors, collected in US20050009776A1, “Method of treating atrial fibrillation or atrial flutter” (Aderis Pharmaceuticals, Inc., priority 2003, published 2005).

Conditions: cited from earlier work

With Nc1ncnc2c1ncn2[C@@H]1O[C@H](CO)[C@@H](O)[C@H]1O [adenosine] as the compound, how does the half-life read?
Its half-life is 10 s.
